The source of these data is publication PMC3706879, “The neurotrophic compound J147 reverses cognitive impairment in aged Alzheimer's disease mice” (Alzheimer's Research & Therapy, 2013).

Entries after “also recorded” stand apart in the source; their conditions may differ.

For one data set, the system named is normal rodents. Set-up: method as in PMID 22194796. Particulars: cited from earlier work.
The test system of another data set is huAPP/PS1 mice. Put plainly: fear conditioning assay in aged huAPP/PS1 mice. The data set is classed as in vivo. To be noted: 200 ppm in food for three months. The procedure:
The APPswe/PS1ΔE9 transgenic mice have been previously characterized. The line 85 mice carry two transgenes, the mouse/human chimeric APP/Swe, linked to Swedish FAD and human PS1ΔE9. At 20 months of age both male and female transgenic mice were fed a high fat diet (Harlan Tekland, Madison, WI, USA) with and without J147 (200 ppm, 10 mg/kg/day). Treatment continued for three months and was followed by behavior testing and sacrifice of mice for tissue harvesting. […] (Data not shown).
Fear conditioning to either a cue or a context represents a form of associative learning. The read-out that is measured in contextual and cued fear conditioning is a freezing response that occurs following the pairing of an unconditioned stimulus (US), such as a foot shock, with a conditioned stimulus (CS), such as a particular context or cue (tone). The mouse will freeze if it remembers and associates that environment with the aversive stimulus. […] On Day 2, the time spent freezing is measured over the entire time in the chamber. […] The percentage of time spent freezing by each mouse is averaged per group and then groups can be compared and P-values calculated to determine statistical significance. On Day 3, the percentage of time spent freezing during the two tones is averaged per group, and then groups can be compared and P-values calculated to determine statistical significance. […]

The test system of data set [1] is C57BL/6J mice. Nature of the data set: Y-maze, scopolamine induced memory impairment. Particulars: scopolamine 1 mg/kg i.p.; J147 200 ppm, donepezil 20 ppm in food for two weeks. Format: in vivo. The procedure:
(§1) A total of 60 male mice aged eight weeks were housed 4 per cage and were divided into five groups with 12 mice per group. Treatments were administered in the food (TestDiet® 5015, Richmond, IN, USA) for a period of two weeks before commencement of behavioral testing. […] Following two weeks of treatment, memory impairment was induced by intraperitoneal (i.p.) injection of scopolamine (1 mg/kg) 30 minutes prior to each of the following behavioral tests: Y-maze, probe trial of the water maze and contextual and cued fear conditioning. Mice were allowed to rest for two days between each behavior test. All mice received scopolamine except for one of the control groups, which received saline as a control. Mice were sacrificed 24 hours after the last behavioral test for tissue harvesting.
Spontaneous alternation, the tendency to alternate free choices in a Y-maze (three arms), is a model for studying short term working memory in mice. Mice were injected with 1 mg/kg of scopolamine or saline 30 minutes prior to testing. Then each mouse was placed in the center of the Y and arm entries were recorded by video camera and the order of entries were recorded for the first 15 entries. Spontaneous alternations are defined as consecutive triplets of different arm choices.

A further data set concerns Aβ plaques. Put plainly: immunohistochemistry (6E10) of amyloid plaques in hippocampus of aged huAPP/PS1 mice. The data set is classed as in vivo. The method, then: Brains were fixed with 4% paraformaldehyde in 100 mM sodium tetraborate, pH 9.5, for 3 h, cryoprotected with 20% sucrose-potassium-PBS (KPBS), and sectioned into coronal (30 μm) sections using a sliding microtome (Leica Microsystems Inc, Buffalo Grove, IL, USA). Sections were submerged in 0.3% H2O2 for 10 minutes to eliminate endogenous peroxidase activity and treated with 1% borate to eliminate free paraformaldehyde. Sections were incubated with primary antibody in 0.3% Triton X-100 in KPBS plus 2% filtered serum or BSA overnight at 4°C, and with […] (1:1,000) in 0.3% Triton X-100 for 1 hr at room temperature. After incubation with secondary antibody and ABC reagent (Vector Laboratories Inc, Burlingame, CA, USA), sections were developed using metal-enhanced DAB solution. Sections were mounted to slides, dried, dehydrolyzed, treated with xylene, and covered using permount (Fisher Scientific, Pittsburgh, Pennsylvania, USA). […]
Quantification of amyloid plaque burden was based on the image captured by immunohistochemical staining with antibody 6E10. Sections of each mouse cortex and hippocampus were imaged together and the areas and densities of the plaques in the hippocampus only were measured by the Image J software (NIH). The total counts of Aβ plaques in sections per six mouse brains of each group were determined in an unbiased fashion.

The subject of a further data set is mice. Nature of the data set: acute toxicity in mice (Absorption Systems). Format: in vivo. To be noted: 2 g/kg, oral, maximum testable dose.
The nature of data set [2]: pharmacokinetic profile in mice, per oral administration (Pharmaron). The data set is classed as in vivo, CD1 Mice. The method, then: The pharmacokinetics of J147 in the mouse brain and plasma were evaluated using standard procedures. Blood and brain distribution of J147 following per oral (PO) administration was plotted for mice as a function of time (Figure 5). […] Additional de-risking and target identification screens were carried out at 10 μM J147 by various CROs (Table 2). […] All original data are available upon request.
Figure 5 Pharmacokinetic profile of J147 in mice. (A) The pharmacokinetic profile of J147 in mice was done by Pharmaron (Louisville, KY, USA). Plasma (B) and brain (C) distribution of J147 was plotted as a function of time following or per oral (PO) administration at 20 mg/kg.

For data set [3], the system named is C57BL/6J mice. Put plainly: fear conditioning, scopolamine induced memory impairment. Format: in vivo. Particulars: scopolamine 1 mg/kg i.p.; J147 200 ppm, donepezil 20 ppm in food; vs scopolamine. The method, then: as §1
Fear conditioning to either a cue or a context represents a form of associative learning. The read-out that is measured in contextual and cued fear conditioning is a freezing response that occurs following the pairing of an unconditioned stimulus (US), such as a foot shock, with a conditioned stimulus (CS), such as a particular context or cue (tone). The mouse will freeze if it remembers and associates that environment with the aversive stimulus. The hippocampus and the amygdala are required for fear memory where the hippocampus is involved in the formation and retrieval of context fear associations and the amygdala is involved in conditioning and recall of associations to contextual and discrete cues. This assay used fear conditioning chambers from Med Associates Inc. with Video Freeze Software (Med Associates Inc, St. Albans, VT, USA). On Day 1, mice were trained by allowing them to explore the chamber for 120 sec, mice were then presented with a 30-sec tone (2 kHz with 85 dB intensity) immediately followed by a 2-sec foot shock (0.7 mA). The tone-shock pairing was repeated following a 30-sec interval and the mice were again allowed to explore for 120 sec before removing them from the chamber. On Day 2, contextual memory, which requires a functioning hippocampus, was tested by placing the mice in the chambers and allowing them to explore for the same length of time as the previous day but without the tone and the shock. On Day 3, cued or emotional memory was tested, which relies on both hippocampus and amygdala. […] On Day 2, the time spent freezing is measured over the entire time in the chamber. […] The percentage of time spent freezing by each mouse is averaged per group and then groups can be compared and P-values calculated to determine statistical significance. On Day 3, the percentage of time spent freezing during the two tones is averaged per group, and then groups can be compared and P-values calculated to determine statistical significance. […]

As to `COc1cccc(/C=N/N(C(=O)C(F)(F)F)c2ccc(C)cc2C)c1` [J147, (E)-N-(2,4-dimethylphenyl)-2,2,2-trifluoro-N'-(3methoxybenzyli-dene) acetohydrazide], the “memory in normal rodents” value in the data set on normal rodents is recorded as “facilitates memory in normal rodents”. Further, in the data set with huAPP/PS1 mice, the “contextual fear conditioning, freezing Day 2” value is reported as “rescued” and the “cued fear conditioning, freezing Day 3” value was “no significant difference between the groups”. Moreover, the “short-term working memory (spontaneous alternations, Y maze)” value in the data set on C57BL/6J mice [1] was “improve short-term working memory”. Also, in the data set on Aβ plaques, the “plaque number and size” value is reported as “no difference in either plaque number or size”. In the data set with mice, the acute toxicity entry was “no oral toxicity; also recorded: negative results”. Besides, in data set [2] (at 2 h after a single dose of 20 mg/kg in mice), the brain levels result is “about 600 nM”. The molecule further yielded a half life in data set [2] (brain, mice, PO) of 2.5 h. Besides, in data set [2] (mice, PO), the “bioavailability following oral administration” value amounted to 28%. Moreover, in data set [2] (plasma, mice, PO), the half life amounted to 1.5 h. The “brain to blood ratio” value in data set [2] (single dose of 20 mg/kg in mice) is listed as “approximately 0.5”. Also, in the data set on C57BL/6J mice [3], the “contextual memory (freezing Day 2)” value is “it was not significant” and the “cued memory (freezing in response to the tone, Day 3)” value was “neither effect was significant”.
